Laboratory results as given in US8168792B2, “Heterocyclic antiviral compounds” (Roche Palo Alto LLC, priority 2009, dated 2012).
pIC50: −log10 of the molar value.

Experiments:
[1] = target: T1, HCV polymerase (NS5B570n-Con1) (Hepatitis C virus genotype 1b, UniProt Q9WMX2); experiment: HCV NS5B RNA polymerase activity (incorporation of radiolabeled nucleotide into RNA); type: biochemical, HCV Con1 strain
T1 construct: contains a 21 amino acid deletion at the C-terminus relative to the full-length HCV polymerase; 6-histidine (N); made in house; host or cells: E. coli BL21(DE) pLysS, plasmid pET17b
Description: The enzymatic activity of HCV polymerase (NS5B570n-Con1) was measured as the incorporation of radiolabeled nucleotide monophosphates into acid insoluble RNA products. Unincorporated radio labeled substrate was removed by filtration and scintillant was added to the washed and dried filter plate containing radio labeled RNA product. The amount of RNA product generated by NS5B570-Con1 at the end of the reaction was directly proportional to the amount of light emitted by the scintillant.
The N-terminal 6-histidine tagged HCV polymerase, derived from HCV Con1 strain, genotype 1b (NS5B570n-Con1) contains a 21 amino acid deletion at the C-terminus relative to the full-length HCV polymerase and was purified from E. coli strain BL21(DE) pLysS. The construct, containing the coding sequence of HCV NS5B Con1 (GenBank accession number AJ242654) was inserted into the plasmid construct pET17b, downstream of a T7 promoter expression cassette and transformed into E. coli. A single colony was grown overnight as a starter culture and later used inoculate 10 L of LB media supplemented with 100 μg/mL ampicillin at 37° C. Protein expression was induced by the addition of 0.25 mM isopropyl-β-D-thiogalactopyranoside (IPTG) when optical density at […] of the culture was between 0.6 and 0.8 and cells were harvested after 16 to 18 h at 30° C. NS5B570n-Con1 was purified to homogeneity using a three-step protocol including subsequent column chromatography on Ni-NTA, SP-Sepharose HP and Superdex 75 resins.
Each 50 μl enzymatic reaction contained 20 nM RNA template derived from the complementary sequence of the Internal Ribosome Entry Site (cIRES), 20 nM NS5B570n-Con1 enzyme, 0.5 μCi of tritiated UTP (Perkin Elmer catalog no. TRK-412; specific activity: 30 to 60 Ci/mmol; stock solution concentration from 7.5×10^-5 M to 20.6×10^-6 M), 1 μM each ATP, CTP, and GTP, 40 mM Tris-HCl pH 8.0, 40 mM NaCl, 4 mM DTT (dithiothreitol), 4 mM MgCl2, and 5 μl of compound serial diluted in DMSO. Reaction mixtures were assembled in 96-well filter plates (cat #MADVN0B, Millipore Co.) and incubated for 2 h at 30° C. Reactions were stopped by addition of 10% final (v/v) trichloroacetic acid and incubated for 40 min at 4° C. Reactions were filtered, washed with 8 reaction volumes of 10% (v/v) trichloroacetic acetic acid, 4 reaction volumes of 70% (v/v) ethanol, air dried, and 25 μl of scintillant (Microscint 20, Perkin-Elmer) was added to each reaction well.
The amount of light emitted from the scintillant was converted to counts per minute (CPM) on a Topcount® plate reader (Perkin-Elmer, Energy Range: Low, Efficiency Mode Normal, Count Time: 1 min, Background Subtract: none, Cross talk reduction: Off).
Data was analyzed in Excel® (Microsoft) and ActivityBase® (Idbs®). The reaction in the absence of enzyme was used to determine the background signal, which was subtracted from the enzymatic reactions. Positive control reactions were performed in the absence of compound, from which the background corrected activity was set as 100% polymerase activity. All data was expressed as a percentage of the positive control. The compound concentration at which the enzyme-catalyzed rate of RNA synthesis was reduced by 50% (IC50) was calculated by fitting
[formula] equation (i) to the data where “Y” corresponds to the relative enzyme activity (in %), “% Min” is the residual relative activity at saturating compound concentration, “% Max” is the relative maximum enzymatic activity, “X” corresponds to the compound concentration, and “S” is the Hill coefficient (or slope).

[2] = test system: HCV; details: monotherapy / sole treatment; cited from earlier work
[3] = test system: HCV replicon (genotype 1b, cell line 2209-23); experiment: HCV replicon assay (Renilla luciferase reporter); type: cell-based, HCV genotype 1b; details: Hepatitis C virus, 72 h; three days incubation, luciferase readout
[4] = in vitro; details: human

Compound | pIC50 [1] | melting point | serum levels of HCV-RNA [2] | pIC50 [3] | CC50 at 3 days [4]
CC(C)(C)c1cc(-c2ccc[nH]c2=O)c2c(=O)oc(-c3ccc(NS(C)(=O)=O)cc3)cc2c1 [Compound I-15, N-{4-[6-tert-Butyl-1-oxo-8-(2-oxo-1,2-dihydro-pyridin-3-yl)-1H-isochromen-3-yl]-phenyl}methanesulfonamide] | 8.10 |  |  |  | 
Cn1c(=O)c(-c2ccc(NS(C)(=O)=O)cc2)cc2cc(C(C)(C)C)cc(-c3ccc[nH]c3=O)c21 [Compound I-8, N-{4-[6-tert-Butyl-1-methyl-2-oxo-8-(2-oxo-1,2-dihydro-pyridin-3-yl)-1,2-dihydro-quinolin-3-yl]-phenyl}-methanesulfonamide] | 8.22 | > 300 °C |  |  | 
NC(=O)c1ncn([C@@H]2O[C@H](CO)[C@@H](O)[C@H]2O)n1 [ribavirin, 1-((2R,3R,4S,5R)-3,4-Dihydroxy-5-hydroxymethyl-tetrahydro-furan-2-yl)-1H-[1,2,4]triazole-3-carboxylic acid amide] |  |  | does not lower serum levels of HCV-RNA |  | 
CC(C)(C)c1cc(-c2ccc[nH]c2=O)c2oc(=O)ccc2c1 [Compound I-1, 3-(6-tert-Butyl-2-oxo-2H-chromen-8-yl)-1H-pyridin-2-one] | 5.82 | > 300 °C |  |  | 
Cn1c(=O)c(-c2ccc(S(N)(=O)=O)cc2)cc2cc(C(C)(C)C)cc(-c3ccc[nH]c3=O)c21 [Compound I-12] | 5.63 | > 300 °C |  |  | 
CC(C)(C)c1cc(-c2ccc[nH]c2=O)c2[nH]c(=O)c(-c3cccc(NS(C)(=O)=O)c3)cc2c1 [Compound I-10, N-{3-[6-tert-Butyl-2-oxo-8-(2-oxo-1,2-dihydro-pyridin-3-yl)-1,2-dihydro-quinolin-3-yl]-phenyl}-methanesulfonamide] | 6.27 | 233 to 235 °C |  |  | 
CC(C)(C)c1cc2c(c(-c3ccc[nH]c3=O)c1)OC(O)C(c1ccc(NS(C)(=O)=O)cc1)C2 (stereo not shown) [Compound I-18, N-{4-[6-tert-Butyl-2-hydroxy-8-(2-oxo-1,2-dihydro-pyridin-3-yl)-chroman-3-yl]-phenyl}-methanesulfonamide] | 8.15 | 228 to 230 °C |  |  | 
CC(C)(C)c1cc(-c2ccc[nH]c2=O)c2oc(=O)c(-c3ccc(N)cc3)cc2c1 [Compound I-3] | 7.47 | > 300 °C |  |  | 
CC(C)(C)c1cc(-c2ccc[nH]c2=O)c2[nH]c(=O)c(-c3ccccc3)cc2c1 [Compound I-4] | 7.04 | 200 to 202 °C |  |  | 
CC(C)(C)c1cc(-c2ccc[nH]c2=O)c2[nH]c(=O)c(-c3ccc(S(N)(=O)=O)cc3)cc2c1 [Compound I-11] | 7.34 | 250 to 252 °C |  |  | 
Cn1c(=O)c(-c2ccccc2)cc2cc(C(C)(C)C)cc(-c3ccc[nH]c3=O)c21 [Compound I-6] | 6.34 | 290 to 292 °C |  |  | 
CC(C)(C)c1cc(-c2ccc[nH]c2=O)c2c(=O)[nH]c(-c3ccc(NS(C)(=O)=O)cc3)cc2c1 [Compound I-14, N-{4-[6-tert-Butyl-1-oxo-8-(2-oxo-1,2-dihydro-pyridin-3-yl)-1,2-dihydro-isoquinolin-3-yl]-phenyl}-methanesulfonamide] | 7.80 | > 300 °C |  |  | 
CC(C)(C)c1cc(-c2ccc[nH]c2=O)c2oc(=O)c(-c3ccc(NS(C)(=O)=O)cc3)cc2c1 [Compound I-5, N-{4-[6-tert-Butyl-2-oxo-8-(2-oxo-1,2-dihydro-pyridin-3-yl)-2H-chromen-3-yl]-phenyl}-methanesulfonamide] | 8.30 | 225 to 227 °C |  | 8.00 | 95100 nM
Cn1c(=O)c(-c2ccc(O)cc2)cc2cc(C(C)(C)C)cc(-c3ccc[nH]c3=O)c21 [Compound I-7] | 6.05 | > 300 °C |  |  | 
CC(C)(C)c1cc(-c2ccc[nH]c2=O)c2[nH]c(=O)c(-c3cccc(C(N)=O)c3)cc2c1 [Compound I-13] | 7.44 | 255 to 257 °C |  |  | 
CC(C)(C)c1cc(-c2ccc[nH]c2=O)c2[nH]c(=O)c(-c3ccc(NS(C)(=O)=O)cc3)cc2c1 [Compound I-9] | 8.30 | > 300 °C |  |  | 
CC(C)(C)c1cc(-c2ccc[nH]c2=O)c2[nH]c(=O)ccc2c1 [Compound I-2] | 6.48 | > 300 °C |  |  | 
